The values below come from US12534457B2, “Heteroaryl derivative compounds, and uses thereof” (Voronoi Inc., priority 2021, dated 2026).

Common to all, as to type: cell-based
Test [1] concerns Ba/F3 cells expressing EGFR L858R/C797S (EGFR LC). Kind of test: Proliferation inhibitory activity, Ba/F3 cells expressing EGFR L858R/C797S (CellTiter-Glo). As to conditions: Mus musculus, BaF3, 72 hours of compound treatment. How it is done:
(§1) The following experiments were performed to evaluate the inhibitory activity of the compounds according to the present disclosure on Ba/F3 proliferation expressing EGFR C797S, L861Q, G719A, S768I, L718Q, and/or G724S mutations.
(§2) For Ba/F3 cells, RPMI-1640 containing 10% FBS and 5 ng/ml IL-3 (R&D Systems) was used. Transduced Ba/F3 cells were cultured after adding 1 μg/ml puromycin (Invitrogen) to the same medium.
(§3) At 24 hours before treatment with the compounds, 3000 to 5000 cells were aliquoted into each well of a white clear bottom 96 well plate (Corning). The compounds were diluted in dimethyl sulfoxide (3 times dilution, 12 concentrations in total), and injected in an amount of 1 μl so that the final concentration was 0.2 nM to 5 uM. For measurement of living cells, after 72 hours of compound treatment, the cells were stored at room temperature for 10 min using CellTiter-Glo luminescentcell-viability reagent (Promega), and then luminescence intensity was measured using a reader (SynergyNeo, Biotek). Each test was repeated three times. Result values were calculated as the cell growth rate (%) compared to the control. The graphs were created using GraphPad Prism version 8.3.0 program and the GI50 values were calculated.
On the technique in general: In ATP-based viability assays light output follows the ATP content of the culture.

Test [2] deals with Ba/F3 cells expressing EGFR Del19/C797S (EGFR DC). Nature of the test: Proliferation inhibitory activity, Ba/F3 cells expressing EGFR Del19/C797S (CellTiter-Glo). As to conditions: Mus musculus, BaF3, 72 hours of compound treatment. In outline:
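Viability after 72 h of compound exposure was measured by luminescence (CellTiter-Glo) in Ba/F3 lines transduced with mutant EGFR. Final concentrations spanned 0.2 nM–5 μM over 12 threefold steps. Growth relative to untreated control gave GI50 values; each test was run three times.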

Test [3] relates to Ba/F3 G719A (EGFR mutation). Nature of the test: Proliferation inhibitory activity, Ba/F3 cells expressing EGFR G719A. As to conditions: Mus musculus, BaF3, 72 hours, CellTiter-Glo. As for the experimental part: as §1, §2, §3
The test system of test [4] is Ba/F3 S768I (EGFR mutation). Nature of the test: Proliferation inhibitory activity, Ba/F3 cells expressing EGFR S768I. The note with it: Mus musculus, BaF3, 72 hours, CellTiter-Glo. As for the experimental part:
as §1, §2, §3

In test [5] the test system is Ba/F3 L861Q (EGFR mutation). Nature of the test: Proliferation inhibitory activity, Ba/F3 cells expressing EGFR L861Q. The note with it: Mus musculus, BaF3, 72 hours, CellTiter-Glo. As for the experimental part: as §1, §2, §3

The GI50 is the concentration giving 50% growth inhibition. As for `CN1CCN(c2ccc(Nc3cc(N4OCC[C@@H]4c4ccccc4)ncn3)cc2)CC1` [Example 1, (R)—N-(4-(4-methylpiperazin-1-yl)phenyl)-6-(3-phenylisoxazolidin-2-yl)pyrimidin-4-amine], the GI50 in test [1] and in test [2] was < 50 nM in each case.
Regarding `COc1cc(Nc2cc(N3OCC[C@@H]3c3ccccc3)ncn2)ccc1N1CCC(N2CCN(C)CC2)CC1` [Example 4, (R)—N-(3-methoxy-4-(4-(4-methylpiperazin-1-yl)piperidin-1-yl)phenyl)-6-(3-phenylisoxazolidin-2-yl)pyrimidin-4-amine], the GI50 is < 50 nM in test [3]; < 50 nM in test [1]; 50 to 500 nM in test [4]; < 50 nM in test [5]; < 50 nM in test [2].
Consider `COc1cc(N2CCC(N3CCN(C)CC3)CC2)ccc1Nc1cc(N2OCC[C@@H]2c2ccccc2)ncn1` [Example 5, (R)—N-(2-methoxy-4-(4-(4-methylpiperazin-1-yl)piperidin-1-yl)phenyl)-6-(3-phenylisoxazolidin-2-yl)pyrimidin-4-amine], for which the 50% growth inhibitory concentration (GI50) in test [1] and in test [2] was < 50 nM throughout.
For `COc1cc(N2CCC(N3CCN(C4CC4)CC3)CC2)ccc1Nc1cc(N2OCC[C@@H]2c2cc(F)cc(F)c2)ncn1` [Example 6, (R)—N-(4-(4-(4-cyclopropylpiperazin-1-yl)piperidin-1-yl)-2-methoxyphenyl)-6-(3-(3,5-difluorophenyl)isoxazolidin-2-yl)pyrimidin-4-amine], the GI50 in test [1] and in test [2] was 50 to 500 nM throughout.
Take `COc1cc(N2CCOCC2)c(-c2cnn(C)c2)cc1Nc1cc(N2OCC[C@@H]2c2cc(F)cc(F)c2)ncn1` [Example 7, (R)-6-(3-(3,5-difluorophenyl)isoxazolidin-2-yl)-N-(2-methoxy-5-(1-methyl-1H-pyrazol-4-yl)-4-morpholinophenyl)pyrimidin-4-amine]: the GI50 in test [1] and in test [2] was 50 to 500 nM throughout.
On to `COc1cc(N2CCC(N3CCN(C)CC3)CC2)c(-c2cnn(C)c2)cc1Nc1cc(N2OCC[C@@H]2c2cc(F)cc(F)c2)ncn1` [Example 8, (R)-6-(3-(3,5-difluorophenyl)isoxazolidin-2-yl)-N-(2-methoxy-5-(1-methyl-1H-pyrazol-4-yl)-4-(4-(4-methylpiperazin-1-yl)piperidin-1-yl)phenyl)pyrimidin-4-amine], for which the GI50 in test [1] and in test [2] was < 50 nM each time.
Regarding `COc1cc(N2CCC(N3CCC(N(C)C)CC3)CC2)c(-c2cnn(C)c2)cc1Nc1cc(N2OCC[C@@H]2c2cc(F)cc(F)c2)ncn1` [Example 10, (R)-1′-(4-((6-(3-(3,5-difluorophenyl)isoxazolidin-2-yl)pyrimidin-4-yl)amino)-5-methoxy-2-(1-methyl-1H-pyrazol-4-yl)phenyl)-N,N-dimethyl-[1,4′-bipiperidin]-4-amine], the 50% growth inhibitory concentration (GI50) in test [1] and in test [2] was 50 to 500 nM in each case.
In the case of `CN1CCN(C2CCN(c3cc(Nc4cc(N5OCC[C@@H]5c5cc(F)cc(F)c5)ncn4)cc(S(C)(=O)=O)c3)CC2)CC1` [Example 11, (R)-6-(3-(3,5-difluorophenyl)isoxazolidin-2-yl)-N-(3-(4-(4-methylpiperazin-1-yl)piperidin-1-yl)-5-(methylsulfonyl)phenyl)pyrimidin-4-amine], the GI50 in test [1] and in test [2] was 50 to 500 nM each time.
For the compound `CS(=O)(=O)c1cc(Nc2cc(N3OCC[C@@H]3c3cc(F)cc(F)c3)ncn2)cc(N2CCC(N3CCOCC3)CC2)c1` [Example 12, (R)-6-(3-(3,5-difluorophenyl)isoxazolidin-2-yl)-N-(3-(methylsulfonyl)-5-(4-morpholinopiperidin-1-yl)phenyl)pyrimidin-4-amine], the GI50 in test [1] and in test [2] was 50 to 500 nM throughout.
With `CN1CCN(c2cc(Nc3cc(N4OCC[C@@H]4c4cc(F)cc(F)c4)ncn3)cc(S(C)(=O)=O)c2)CC1` [Example 13, (R)-6-(3-(3,5-difluorophenyl)isoxazolidin-2-yl)-N-(3-(4-methylpiperazin-1-yl)-5-(methylsulfonyl)phenyl)pyrimidin-4-amine], the GI50 in test [1] and in test [2] was 50 to 500 nM each time.
For `CN1CCN(c2cc(Nc3cc(N4OCC[C@@H]4c4cc(F)cc(F)c4)ncn3)cc(C(C)(C)C#N)c2)CC1` [Example 15, (R)-2-(3-((6-(3-(3,5-difluorophenyl)isoxazolidin-2-yl)pyrimidin-4-yl)amino)-5-(4-methylpiperazin-1-yl)phenyl)-2-methylpropanenitrile], the concentration for 50% growth inhibition (GI50) in test [1] and in test [2] was < 50 nM each time.
On to `CN(C)C1CCN(C2CCN(c3ccc(Nc4cc(N5OCC[C@@H]5c5ccccc5)ncn4)cc3)CC2)CC1` [Example 84, (R)—N,N-dimethyl-1′-(4-((6-(3-phenylisoxazolidin-2-yl)pyrimidin-4-yl)amino)phenyl)-[1,4′-bipiperidin]-4-amine], for which the GI50 in test [1] and in test [2] was < 50 nM each time.
Turning to `COc1cc(Nc2cc(N3OCC[C@@H]3c3ccccc3)ncn2)ccc1N1CCN(C2CCN(C)CC2)CC1` [Example 102, (R)—N-(3-methoxy-4-(4-(1-methylpiperidin-4-yl)piperazin-1-yl)phenyl)-6-(3-phenylisoxazolidin-2-yl)pyrimidin-4-amine], the GI50 in test [1] and in test [2] was < 50 nM each time.
Take `Cc1cc(Nc2cc(N3OCC[C@@H]3c3ccc(F)cc3F)ncn2)ccc1N1CCC(N2CCN(C)CC2)CC1` [Example 104, (R)-6-(3-(2,4-difluorophenyl)isoxazolidin-2-yl)-N-(3-methyl-4-(4-(4-methylpiperazin-1-yl)piperidin-1-yl)phenyl)pyrimidin-4-amine]: the GI50 in test [1] and in test [2] was < 50 nM throughout.
As for `COc1cc(Nc2cc(N3OCC[C@@H]3c3cccc(F)c3F)ncn2)ccc1N1CCC(N2CCN(C)CC2)CC1` [Example 128, (R)-6-(3-(2,3-difluorophenyl)isoxazolidin-2-yl)-N-(3-methoxy-4-(4-(4-methylpiperazin-1-yl)piperidin-1-yl)phenyl)pyrimidin-4-amine], the GI50 in test [1] and in test [2] was < 50 nM each time.
As to `COc1cc(N2CCC(N3CCN(C)CC3)CC2)ccc1Nc1cc(N2OCC[C@@H]2c2ccc(Cl)c(F)c2)ncn1` [Example 129, (R)-6-(3-(4-chloro-3-fluorophenyl)isoxazolidin-2-yl)-N-(2-methoxy-4-(4-(4-methylpiperazin-1-yl)piperidin-1-yl)phenyl)pyrimidin-4-amine], the concentration for 50% growth inhibition (GI50) in test [1] and in test [2] was < 50 nM in each case.
Take `COc1cc(N2CCC(N3CCN(C)CC3)CC2)c(Cl)cc1Nc1cc(N2OCC[C@@H]2c2ccccc2)ncn1` [Example 132, (R)—N-(5-chloro-2-methoxy-4-(4-(4-methylpiperazin-1-yl)piperidin-1-yl)phenyl)-6-(3-phenylisoxazolidin-2-yl)pyrimidin-4-amine]: the GI50 in test [1] and in test [2] was < 50 nM each time.
Take `CN1CCN(c2ccc(Nc3cc(N4OCC5(CC5)[C@@H]4c4ccccc4)ncn3)cc2)CC1` [Example 231, (S)—N-(4-(4-methylpiperazin-1-yl)phenyl)-6-(7-phenyl-5-oxa-6-azaspiro[2.4]heptan-6-yl)pyrimidin-4-amine]: the GI50 in test [2] lay within 50 to 500 nM.
Same read-out and setting: the same measure for `COc1cc(N2CCC(N3CCN(C)CC3)CC2)ccc1Nc1cc(N2OCC3(CC3)[C@@H]2c2ccccc2)ncn1` [Example 233, (S)—N-(2-methoxy-4-(4-(4-methylpiperazin-1-yl)piperidin-1-yl)phenyl)-6-(7-phenyl-5-oxa-6-azaspiro[2.4]heptan-6-yl)pyrimidin-4-amine]: < 50 nM; for `COc1cc(N2CCC(N3CCN(C)CC3)CC2)ccc1Nc1cc(N2OCC3(CC3)[C@H]2c2ccccc2)ncn1` [Example 234, (R)—N-(2-methoxy-4-(4-(4-methylpiperazin-1-yl)piperidin-1-yl)phenyl)-6-(7-phenyl-5-oxa-6-azaspiro[2.4]heptan-6-yl)pyrimidin-4-amine]: 50 to 500 nM.
Regarding `CC(C)[C@H]1CCON1c1cc(Nc2ccc(N3CCN(C)CC3)cc2)ncn1` [Example 235, (R)-6-(3-isopropylisoxazolidin-2-yl)-N-(4-(4-methylpiperazin-1-yl)phenyl)pyrimidin-4-amine], the GI50 in test [2] is < 50 nM.
Same read-out and setting: the value for `COc1cc(N2CCC(N3CCN(CCS(C)(=O)=O)CC3)CC2)ccc1Nc1cc(N2OCC[C@@H]2c2cccc(F)c2F)ncn1` [Example 237, (R)-6-(3-(2,3-difluorophenyl)isoxazolidin-2-yl)-N-(2-methoxy-4-(4-(4-(2-(methylsulfonyl)ethyl)piperazin-1-yl)piperidin-1-yl)phenyl)pyrimidin-4-amine] was < 50 nM; that for `CN(C)C1CCN(c2ccc(Nc3cc(N4OCC[C@@H]4c4ccccc4)ncn3)nc2)CC1` [Example Compound 138, (R)-N-(5-(4-(dimethylamino)piperidin-1-yl)pyridin-2-yl)-6-(3-phenylisoxazolidin-2-yl)pyrimidin-4-amine] was < 50 nM.
